Experiments:
Assay type in all cases: in vivo
[1] = system: Tobacco budworm (Heliothis virescens); assay: Tobacco budworm test, insect diet with eggs in 96-well microtiter plates; settings: 120 h, egg and larval mortality, 5 days, read-out: mortality in comparison with untreated controls
Protocol: For evaluating control of tobacco budworm (Heliothis virescens), the test unit consisted of 96-well-microtiter plates containing an insect diet and 15-25 H. virescens eggs.
The compounds were formulated using a solution containing 75% v/v water and 25% v/v DMSO. Different concentrations of formulated compounds were sprayed onto the insect diet at 10 µl, using a custom-built micro atomizer, at two replications.
After application, microtiter plates were incubated at about 28 ± 1°C and about 80 ± 5 % relative humidity for 5 days. Egg and larval mortality was then visually assessed.

[2] = system: Yellow fever mosquito (Aedes aegypti); assay: whole plant or invertebrate; settings: 48 h, larval mortality, 2 days, read-out: mortality in comparison with untreated controls
Protocol: For evaluating control of yellow fever mosquito (Aedes aegypti) the test unit consisted of 96-well-microtiter plates containing 200µl of tap water per well and 5-15 freshly hatched A. aegypti larvae.
The active compounds were formulated using a solution containing 75% (v/v) water and 25% (v/v) DMSO. Different concentrations of formulated compounds or mixtures were sprayed onto the insect diet at 2.5µl, using a custom-built micro atomizer, at two replications.
After application, microtiter plates were incubated at 28 ± 1°C, 80 ± 5 % RH for 2 days. Larval mortality was then visually assessed.

[3] = system: Green Peach Aphid (Myzus persicae); assay: Green peach aphid systemic test, artificial diet under membrane in 96-well microtiter plates; settings: 72 h, adult aphids on treated artificial diet, 3 days, read-out: mortality in comparison with untreated controls
Source text: For evaluating control of green peach aphid (Myzus persicae) through systemic means, the test unit consisted of 96-well-microtiter plates containing liquid artificial diet under an artificial mem brane.
The compounds were formulated using a solution containing 75% v/v water and 25% v/v DMSO. Different concentrations of formulated compounds were pipetted into the aphid diet, using a custom built pipetter, at two replications.
After application, 5 - 8 adult aphids were placed on the artificial membrane inside the microtiter plate wells. The aphids were then allowed to suck on the treated aphid diet and incubated at about 23 ± 1°C and about 50 ± 5 % relative humidity for 3 days. Aphid mortality and fecundity was then visually assessed.

[4] = system: Diamond back moth (Plutella xylostella); assay: Diamond back moth leaf-dip test on cabbage leaves; settings: cabbage leaves dipped, 3rd instar larvae, 72 hours after treatment, read-out: mortality in comparison with untreated controls
Protocol: The active compound was dissolved at the desired concentration in a mixture of 1:1 (vol:vol) distilled water: acetone. Surfactant (Kinetic HV) was added at a rate of 0.01% (vol/vol). The test solution was prepared on the day of use.
Leaves of cabbage were dipped in test solution and air-dried. Treated leaves were placed in petri dishes lined with moist filter paper and inoculated with ten 3rd instar larvae. Mortality was recorded 72 hours after treatment. Feeding damages were also recorded using a scale of 0-100%.

[5] = system: Orchid thrips (Dichromothrips corbetti); assay: Orchid thrips floral-immersion test; settings: adult thrips on dipped orchid petals, 72 hours after treatment, read-out: mortality in comparison with untreated controls
Protocol: Dichromothrips corbetti adults used for bioassay were obtained from a colony maintained continuously under laboratory conditions. For testing purposes, the test compound is diluted in a 1:1 mixture of acetone:water (vol:vol), plus Kinetic HV at a rate of 0.01% v/v.
Thrips control potency of each compound was evaluated by using a floral-immersion technique. All petals of individual, intact orchid flowers were dipped into treatment solution and allowed to dry in Petri dishes. Treated petals were placed into individual re-sealable plastic along with about 20 adult thrips. All test arenas were held under continuous light and a temperature of about 28°C for duration of the assay. After 3 days, the numbers of live thrips were counted on each petal. The percent mortality was recorded 72 hours after treatment.

[6] = system: Boll weevil (Anthonomus grandis); assay: Boll weevil test, insect diet with eggs in 96-well microtiter plates; settings: 120 h, egg and larval mortality, 5 days, read-out: mortality in comparison with untreated controls
Protocol: For evaluating control of boll weevil (Anthonomus grandis), the test unit consisted of 96-well-microtiter plates containing an insect diet and 5-10 A. grandis eggs.
The compounds were formulated using a solution containing 75% v/v water and 25% v/v DMSO. Different concentrations of formulated compounds were sprayed onto the insect diet at 5 µl, using a custom-built micro atomizer, at two replications.
After application, microtiter plates were incubated at about 25 ± 1°C and about 75 ± 5 % relative humidity for 5 days. Egg and larval mortality was then visually assessed.

CC(=NO)n1ncnc1C(C)NC(=O)c1cc(C(F)(F)F)cc(C(F)(F)F)c1 (stereo not shown) [I-1, N-[1-[2-[N-hydroxy-C-methyl-carbonimidoyl]-1,2,4-triazol-3-yl]ethyl]-3,5-bis(trifluoromethyl)benzamide]
≥ 75%: mortality at 2500 ppm [1] | mortality at 2500 ppm [2] | mortality at 2500 ppm [3] | mortality at 300 ppm [4]

CO/N=C(/C)n1ncnc1C(C)NC(=O)c1cc(C(F)(F)F)cc(C(F)(F)F)c1 (stereo not shown) [I-3, N-[1-[2-[(Z)-N-methoxy-C-methyl-carbonimidoyl]-1,2,4-triazol-3-yl]ethyl]-3,5-bis(trifluoromethyl)benzamide]
≥ 75%: mortality at 2500 ppm [1] | mortality at 2500 ppm [2] | mortality at 300 ppm [5] | mortality at 2500 ppm [6] | mortality at 2500 ppm [3] | mortality at 300 ppm [4]

CO/N=C(\C)n1ncnc1C(C)NC(=O)c1cc(C(F)(F)F)cc(C(F)(F)F)c1 (stereo not shown) [I-4, N-[1-[2-[(E)-N-methoxy-C-methyl-carbonimidoyl]-1,2,4-triazol-3-yl]ethyl]-3,5-bis(trifluoromethyl)benzamide]
≥ 75%: mortality at 2500 ppm [1] | mortality at 2500 ppm [2] | mortality at 300 ppm [5] | mortality at 2500 ppm [6] | mortality at 2500 ppm [3] | mortality at 300 ppm [4]

Reference: patent publication EP4119547A1, “TRIAZOLE COMPOUNDS FOR THE CONTROL OF INVERTEBRATE PESTS” (priority 2021, dated 2023)
